Experimental data as given in ChEMBL document CHEMBL1152040, “The stereochemical requirements of the novel -opioid selective dipeptide antagonist TMT-Tic” (Bioorg Med Chem Lett, 1997).

Key:
[1] = biological target: Delta-type opioid receptor (Mus musculus, UniProt P32300); assay: The compound was evaluated for the binding affinity towards delta-opioid receptor by displacement of [3H]p-CI-DPDPE radioligand from mouse vas deferens; format: tissue-based
Mu-type opioid receptor = Mu-type opioid receptor (Cavia porcellus, UniProt P97266); assay: The compound was evaluated for the binding affinity towards mu-opioid receptor by displacement of [3H]DAMGO radioligand from guinea pig ileum; format: tissue-based
Sequence of Mu-type opioid receptor (P97266 whole entry): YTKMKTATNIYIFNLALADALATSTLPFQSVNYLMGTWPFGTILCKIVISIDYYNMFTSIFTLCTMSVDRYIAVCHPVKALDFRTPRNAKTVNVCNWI

Sequence of Delta-type opioid receptor (P32300 whole entry): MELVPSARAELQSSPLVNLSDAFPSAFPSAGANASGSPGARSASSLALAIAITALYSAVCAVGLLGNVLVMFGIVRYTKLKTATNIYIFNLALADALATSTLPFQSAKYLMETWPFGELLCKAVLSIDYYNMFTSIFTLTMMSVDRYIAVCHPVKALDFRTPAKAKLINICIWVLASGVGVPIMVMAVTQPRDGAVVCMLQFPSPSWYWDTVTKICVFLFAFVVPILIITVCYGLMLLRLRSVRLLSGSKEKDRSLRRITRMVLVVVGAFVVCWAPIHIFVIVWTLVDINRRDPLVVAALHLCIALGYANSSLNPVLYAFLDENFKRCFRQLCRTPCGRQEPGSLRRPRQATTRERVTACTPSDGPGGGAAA

Row | SMILES | IC50 [1] | IC50 (Mu-type opioid receptor) | Ki [1] | Ki (Mu-type opioid receptor)
1 | Cc1cc(O)cc(C)c1[C@H](C)[C@@H](N)C(=O)N1Cc2ccccc2C[C@H]1C(=O)O | > 10 µM | > 80 µM | – | –
2 | Cc1cc(O)cc(C)c1[C@H](C)[C@H](N)C(=O)N1Cc2ccccc2C[C@H]1C(=O)O | 0.124 µM | > 80 µM | – | –
3 | NC(Cc1ccc(O)cc1)C(=O)N1Cc2ccccc2C[C@H]1C(=O)O (single isomer, unassigned) | – | – | 0.191 µM | 28.4 µM
4 | Cc1cc(O)cc(C)c1C(C)C(NC(=O)OC(C)(C)C)C(=O)N1Cc2ccccc2C[C@H]1C(=O)OCc1ccccc1 (some centres not stated) | 0.019 µM | 8.4 µM | – | –
5 | Cc1cc(O)cc(C)c1[C@@H](C)[C@@H](N)C(=O)N1Cc2ccccc2C[C@H]1C(=O)O | > 10 µM | > 80 µM | – | –
6 | Cc1cc(O)cc(C)c1[C@@H](C)[C@H](N)C(=O)N1Cc2ccccc2C[C@H]1C(=O)O | 0.0093 µM | 35 µM | – | –
